Assay [1] deals with influenza virus (PR/8 (H1N1)). Put plainly: microbe, parasite or virus in culture. Type of assay: cell-based. The following applies: unidentified influenza virus, MDCK; for inhibition at 0.00625 µg/mL: read-out: Inhibition rate, single use, 0.00625 μg/mL; for inhibition at 0.0125 µg/mL: read-out: Inhibition rate, single use, 0.0125 μg/mL; for inhibition at 0.025 µg/mL: read-out: Inhibition rate, single use, 0.025 μg/mL; for inhibition at 0.05 µg/mL: read-out: Inhibition rate, single use, 0.05 μg/mL; for inhibition at 0.1 µg/mL: read-out: Inhibition rate, single use, 0.1 μg/mL; for inhibition at 0.2 µg/mL: read-out: Inhibition rate, single use, 0.2 μg/mL; for inhibition at 0.4 µg/mL: read-out: Inhibition rate, single use, 0.4 μg/mL; for inhibition at 0.0625 µg/mL: read-out: Inhibition rate, single use, 0.0625 μg/mL; for inhibition at 0.125 µg/mL: read-out: Inhibition rate, single use, 0.125 μg/mL; for inhibition at 0.25 µg/mL: read-out: Inhibition rate, single use, 0.25 μg/mL; for inhibition at 0.5 µg/mL: read-out: Inhibition rate, single use, 0.5 μg/mL; for inhibition at 1 µg/mL: read-out: Inhibition rate, single use, 1 μg/mL; for inhibition at 2 µg/mL: read-out: Inhibition rate, single use, 2 μg/mL.

The subject of assay [2] is Victoria/3/75 (H3N2) influenza virus. Put plainly: microbe, parasite or virus in culture. The format is cell-based. The following applies: Influenza A virus, H3N2, MDCK, single use, read-out: Inhibition rate; for inhibition at 0.0125 µg/mL: 0.0125 μg/mL; for inhibition at 0.025 µg/mL: 0.025 μg/mL; for inhibition at 0.05 µg/mL: 0.05 μg/mL; for inhibition at 0.1 µg/mL: 0.1 μg/mL; for inhibition at 0.2 µg/mL: 0.2 μg/mL; for inhibition at 0.125 µg/mL: 0.125 μg/mL; for inhibition at 0.25 µg/mL: 0.25 μg/mL; for inhibition at 0.5 µg/mL: 0.5 μg/mL; for inhibition at 1 µg/mL: 1 μg/mL; for inhibition at 2 µg/mL: 2 μg/mL; for inhibition at 4 µg/mL: 4 μg/mL.

Read-outs that look alike come from different tables or passages of the source.

In the case of `CCC(CC)O[C@@H]1C=C(C(=O)O)C[C@H](N)[C@H]1NC(C)=O` [GS-4071], in assay [1] (read-out: Inhibition rate, single use, 0.00313 μg/mL, Test Example 1), the inhibition at 0.00313 µg/mL turned out to be 1.9%. For the same molecule, in assay [1] (Test Example 1), the inhibition at 0.00625 µg/mL worked out at 11%, the inhibition at 0.0125 µg/mL turned out to be 14%, the inhibition at 0.025 µg/mL was 25% and the inhibition at 0.05 µg/mL is 29%. Further, in assay [1] (Test Example 1), the inhibition at 0.1 µg/mL worked out at 42%, the inhibition at 0.2 µg/mL came to 61% and the inhibition at 0.4 µg/mL was found to be 73%. Besides, in assay [1] (read-out: Inhibition rate, single use, 0.8 μg/mL, Test Example 1), the inhibition at 0.8 µg/mL is 84%. The inhibition at 0.003125 µg/mL in assay [2] (0.003125 μg/mL, Test Example 3) amounted to 8.6%. Besides, the inhibition at 0.00625 µg/mL in assay [2] (0.00625 μg/mL, Test Example 3) stood at 14%. Also, in assay [2] (Test Example 3), the inhibition at 0.0125 µg/mL was 44%, the inhibition at 0.025 µg/mL is 54%, the inhibition at 0.05 µg/mL is 68% and the inhibition at 0.1 µg/mL was 80%. Besides, the inhibition at 0.2 µg/mL in assay [2] (Test Example 3) was 88%.

Consider `NC(=O)c1nc(F)cnc1O` [T-705, 6-Fluoro-3-hydroxy-2-pyrazinecarboxamide], for which the inhibition at 0.0156 µg/mL in assay [1] (read-out: Inhibition rate, single use, 0.0156 μg/mL, Test Example 1) was determined as 1.9%. In assay [1] (read-out: Inhibition rate, single use, 0.0313 μg/mL, Test Example 1), the inhibition at 0.0313 µg/mL was 6.7%. Moreover, in assay [1] (Test Example 1), the inhibition at 0.0625 µg/mL stood at 9.7%, the inhibition at 0.125 µg/mL is 27%, the inhibition at 0.25 µg/mL came to 43% and the inhibition at 0.5 µg/mL was found to be 60%. In addition, in assay [1] (Test Example 1), the inhibition at 1 µg/mL is 85% and the inhibition at 2 µg/mL was found to be 93%. For the same molecule, in assay [1] (Test Example 2), the inhibition at 0.0625 µg/mL was found to be 6.2%, the inhibition at 0.125 µg/mL is 17%, the inhibition at 0.25 µg/mL worked out at 34% and the inhibition at 0.5 µg/mL was determined as 64%. For the same molecule, in assay [1] (Test Example 2), the inhibition at 1 µg/mL amounted to 77% and the inhibition at 2 µg/mL came to 89%. The inhibition at 4 µg/mL in assay [1] (read-out: Inhibition rate, single use, 4 μg/mL, Test Example 1) came out at 100%. Also, in assay [2] (Test Example 3), the inhibition at 0.125 µg/mL worked out at 2.6%, the inhibition at 0.25 µg/mL worked out at 9%, the inhibition at 0.5 µg/mL amounted to 42% and the inhibition at 1 µg/mL amounted to 76%. In assay [2] (Test Example 3), the inhibition at 2 µg/mL was determined as 86% and the inhibition at 4 µg/mL was determined as 94%. Besides, in assay [2] (Test Example 4), the inhibition at 0.125 µg/mL is 2.6%, the inhibition at 0.25 µg/mL amounted to 9.2%, the inhibition at 0.5 µg/mL was found to be 42% and the inhibition at 1 µg/mL turned out to be 76%. Also, in assay [2] (Test Example 4), the inhibition at 2 µg/mL worked out at 86% and the inhibition at 4 µg/mL came out at 94%.

`CC(=O)N[C@H]1[C@H]([C@H](O)[C@H](O)CO)OC(C(=O)O)=C[C@@H]1N=C(N)N` [Zanamivir, zanamivir]: the inhibition at 0.0031 µg/mL in assay [1] (read-out: Inhibition rate, single use, 0.0031 μg/mL, Test Example 2) is 6.2%. Also, in assay [1] (Test Example 2), the inhibition at 0.00625 µg/mL is 12%, the inhibition at 0.0125 µg/mL came out at 23%, the inhibition at 0.025 µg/mL was 28% and the inhibition at 0.05 µg/mL is 49%. Besides, in assay [1] (Test Example 2), the inhibition at 0.1 µg/mL came to 60%, the inhibition at 0.2 µg/mL worked out at 67% and the inhibition at 0.4 µg/mL stood at 75%. Moreover, in assay [2] (Test Example 4), the inhibition at 0.0125 µg/mL is 7.4%, the inhibition at 0.025 µg/mL was 14%, the inhibition at 0.05 µg/mL was 27% and the inhibition at 0.1 µg/mL was 40%. In addition, in assay [2] (Test Example 4), the inhibition at 0.2 µg/mL amounted to 60%. Moreover, the inhibition at 0.4 µg/mL in assay [2] (0.4 μg/mL, Test Example 4) is 71%. Besides, the inhibition at 0.8 µg/mL in assay [2] (0.8 μg/mL, Test Example 4) turned out to be 81%.

The values are drawn from patent publication US8759354B2, “Pharmaceutical composition comprising pyrazine derivative, and method of using pyrazine derivative in combination” (priority 2007, dated 2014).
